The values that follow come from patent US6500828B1, “Triazolo-pyridazine derivatives as ligands for gaba receptors” (Merck Sharp & Dohme Ltd., priority 1999, dated 2002).

The structures appear in SMILES notation.

Take `CCn1ncnc1COc1nn2c(-c3c(F)cccc3F)nnc2cc1C(C)(C)C` [Example 3, 3-(2,6-Difluorophenyl)-7-(1,1-dimethylethyl)-6-(2-ethyl-2H-1,2,4-triazol-3-ylmethoxy)-1,2,4-triazolo[4,3-b]pyridazine]: the melting point (in general, the temperature of the solid-liquid transition) is 182 °C.
